Results published in patent publication US9345245B2, “Synthetic compounds for vegetative ABA responses” (THE REGENTS OF THE UNIVERSITY OF CALIFORNIA, priority 2012, dated 2016).

Assays:
[1] = test system: Chlamydomonas; assay: Colony growth of Chlamydomonas with and without salinity and osmotic stress; assay type: in vivo; details: with and without salinity and osmotic stress
Description: FIG. 17. The effect of ABA and its agonists in Physcomitrella patens and Chlamydomonas. Protonemal growth images (A) and quantitative analysis (B) of the effects of ABA and agonists on Phsycomitrella patens. Protonema were grown on 200 μM of specific test chemical for 10 days. […] Pyrabactin bleached protonema. (C) The expression of ABA-responsive genes of Physcomitrella patens. Protonema were treated with 200 μM chemical solutions for 3 h. (D) Colony growth of Chlamydomonas on the chemical with salinity stress and osmotic stress. There was no effect of ABA and LC66C6 on the Chlamydomonas growth with and without stresses.

[2] = test system: Arabidopsis seeds; assay: Arabidopsis seed germination inhibition; assay type: in vivo; details: pyr1/pyl1/pyl2/pyl4 quadruple mutant; 5 μM
Description: FIG. 5. Novel ABA agonists inhibit germination of Arabidopsis seeds more strongly than pyrabactin. (A) and (B) Comparison of seed germination inhibition by ABA agonists. (C) and (D) the effects of ABA and LC66C6 (also called quinabactin) on Arabidopsis ABA signaling- and biosynthesis-deficient mutants on germination (C) and seedling establishment (D). Seeds were sown on ½×MS agar plate containing chemicals, and were stored at 4° C. for 4 days, then transferred at 22±2° C. Photographs (A and C) and germination (B) or green cotyledon (D) scores were assessed after a 4-day incubation under continuous illumination. […] For Arabidopsis germination and hypocotyl growth inhibition analysis, seeds after-ripened about 4 weeks were surface-sterilized with a solution containing 5% NaClO and 0.05% Tween-20 for 10 minutes, and rinsed with water four times. Sterilized seeds were suspended with 0.1% agar and sowed on the 0.8% solidified agar medium containing ½ Murashige and Skoog (MS) salts (Sigma-Aldrich) in the presence of chemicals and were stored at 4° C. for 4 days, then transferred at 22° C. under the dark or light. Germination was determined after a 4-day incubation, whereas hypocotyl growth was photographed after 6-day incubation.

[3] = test system: PYR/PYL receptors; assay: Receptor-mediated PP2C inhibition assay, all ABA receptors tested; assay type: biochemical, Arabidopsis; details: 10 μM; in the presence of all ABA receptors tested
Description: HAB1 and PYL proteins were expressed and purified as described previously (Park S Y, et al. (2009) Abscisic Acid Inhibits Type 2C Protein Phosphatases via the PYR/PYL Family of START Proteins. Science 324(5930):1068-1071), with minor modifications. To obtain GST-HAB1, -ABI1 and -ABI2 fusion proteins, the HAB1 cDNA was cloned into pGex-2T whereas ABI1 and ABI2 cDNAs were cloned into the vector pGex-4T-1. Expression was conducted in BL21[DE3]pLysS host cells. Transformed cells were pre-cultured overnight, transferred to LB medium and cultured at 30° C. to culture A600 of 0.5. The culture was then cooled on ice and MnCl2 added to 4 mM and IPTG added to 0.3 mM. After 16 hours incubation at 15° C., cells were harvested and recombinant proteins were purified on glutathione agarose as described previously (Park S Y, et al. (2009). To obtain 6×His-PYL receptor fusion proteins, receptor cDNAs for all 13 ABA receptors were cloned into the vector pET28 and expressed and purified as described previously (Mosquna A, et al. (2011) Potent and selective activation of abscisic acid receptors in vivo by mutational stabilization of their agonist-bound conformation. PNAS 108(51):20838-20843); this yielded soluble and functional protein (assessed using receptor-mediated PP2C inhibition assays) for all receptors except PYL7, PYL11 and PYL12. […]

[4] = test system: CYP707A ABA-hydroxylating enzymes; assay: Growth and germination in CYP707A overexpressing and cyp707a double mutant plants; assay type: in vivo, Arabidopsis; details: 40 μM
Source text: FIG. 12. LC66C6 sensitivity is not influenced by the CYP707A ABA-hydroxylating enzymes.

[5] = test system: ABA-responsive genes; assay: Quantitative RT-PCR of ABA-responsive genes in Arabidopsis; assay type: in vivo
Description: FIG. 9. LC66C6 induces numerous ABA-responsive genes. […] Ten-day old seedlings were treated with carrier solvent (DMSO) or either 25 μM ABA, pyrabactin or LC66C6 for 8 hours. Total RNA was then prepared labeled and hybridized to ATH1 microarrays. Data plotted are log 2 transformed average expression values for ˜13K probes that were detectable across all experiments. Data shown are averages determined from triplicate biological replicates. (C) and (D) show the expression of a reporter gene in different plant tissues after treatment with vehicle (DMSO), pyrabactin, LC66C6, or (+)-ABA.
Total RNA was isolated using Plant RNA purification reagent (Invitrogen, USA) according to the manufacturer's instructions. cDNA was synthesized from 1 μg of total RNA using the QantiTec reverse transcription kit (Qiagen, USA). Real-time PCR using Maxima® SYBR Green/Fluorescein qPCR Master Mix (Fermentas) was performed with the iQ5 real-time PCR detection system (Bio-Rad, Hercules, Calif.). The relative amounts of target mRNAs were determined using the relative standard curve method and were normalized by relative amount of internal control mRNA. Biological triplicate experiments were performed.

CC1=CC(=O)CC(C)(C)C1(O)/C=C/C(C)=C\C(=O)O (single isomer, unassigned; (+)) [(+)-ABA, Abscisic acid]
effect on growth of Chlamydomonas [1]: no effect | inhibition of germination in quadruple mutant [2]: inhibit germination in the quadruple mutant | PPC2 enzyme activity of HBA1, ABI1, and ABI2 inhibited [3]: > 90% | inhibition of plant growth and germination in plants that overexpress CYP707A ([4]; CYP707AOX vs wild-type): reduced | inhibition of plant growth and germination in cyp707a double mutant ([4]; cyp707a double mutant vs wild-type): enhanced | induction of MAPKKK18, RD29A, and RD29B mRNAs ([5]; Col and Ler ecotypes and pyr1, pyl1, ply2, pyl3 and pyl4 single mutants): induced | expression of ABF3, GBF3, NCED3, and RD29A ([5]; Col wild-type plants): induced expression of ABF3, GBF3, NCED3, and RD29A in a dose dependent manner | expression of ABF3, GBF3, NCED3, and RD29A ([5]; abi1-1 and PYR/PYL quadruple mutant plants): induction levels were impaired
